# Values quoted from earlier work, collected in patent US20030232858A1, “Use of hydroxyeicosatetraenoic acid compounds to treat dry mouth” (priority 2002, published 2003).
structure (smiles),measurement,setting,value
"CCCCC[C@H](O)/C=C/C=C\C/C=C\C/C=C\CCCC(=O)O [15-HETE, 15-Hydroxyeicosatetraenoic acid]",anti-inflammatory properties in colitis,colitis,minor anti-inflammatory properties
same,effects on leukotriene B4 production or its activity,leukotriene B4,inhibitory effects
same,effect on psoriasis,psoriatic skin lesions; injected into psoriatic skin lesions,can improve psoriasis
same,concentration required to cause a clinical effect,"psoriatic skin lesions; intralesional injection, 0.1 ml",10 µmol/L
same,amount required to cause a clinical effect,"psoriatic skin lesions; intralesional injection, 0.1 ml of 10 μmol/L",300 ng
